What follows are molecules tested on 817829-284-R-J1-PDC complex spheroids, viability (assay: Anticancer human tumor 817829-284-R-J1-PDC patient-derived colon adenocarcinoma cell line growth inhibition [CLK]). Conditions: second compound 0.316 µM; first compound 0.1 µM; hits give low values.
Outline: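 Multi-cell-type spheroids combined patient-derived tumor cells with HUVEC endothelial cells and human mesenchymal stem cells. Paired agents were dosed in half-log steps down from about clinical Cmax, or from 10 microM where Cmax was unknown.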
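Further: spheroids exposed to the agents for seven days before readout.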

Compound | viability, T/C [%]
O=c1[nH]cc(F)c(=O)[nH]1 + CNC(=O)c1ccc(Nc2nc(OC3CCCC3)c3c(-c4ccc5nc(C)oc5c4)c[nH]c3n2)c(OC)c1 | 26.6

Same assay, conditions: second compound 0.316 µM; first compound 0.316 µM; hits give low values

Compound | viability, T/C [%]
CCc1c2c(nc3ccc(O)cc13)-c1cc3c(c(=O)n1C2)COC(=O)[C@]3(O)CC + CNC(=O)c1ccc(Nc2nc(OC3CCCC3)c3c(-c4ccc5nc(C)oc5c4)c[nH]c3n2)c(OC)c1 | 5.8
Nc1ccn(C2OC(CO)C(O)C2(F)F)c(=O)n1 (configuration not stated) + CNC(=O)c1ccc(Nc2nc(OC3CCCC3)c3c(-c4ccc5nc(C)oc5c4)c[nH]c3n2)c(OC)c1 | 7.05
O=C(c1cc(Cc2n[nH]c(=O)c3ccccc23)ccc1F)N1CCN(C(=O)C2CC2)CC1 + CNC(=O)c1ccc(Nc2nc(OC3CCCC3)c3c(-c4ccc5nc(C)oc5c4)c[nH]c3n2)c(OC)c1 | 27.7
O=c1[nH]cc(F)c(=O)[nH]1 + CNC(=O)c1ccc(Nc2nc(OC3CCCC3)c3c(-c4ccc5nc(C)oc5c4)c[nH]c3n2)c(OC)c1 | 17.4

Same assay, conditions: second compound 0.316 µM; first compound 1 µM; hits give low values

Compound | viability, T/C [%]
CCc1c2c(nc3ccc(O)cc13)-c1cc3c(c(=O)n1C2)COC(=O)[C@]3(O)CC + CNC(=O)c1ccc(Nc2nc(OC3CCCC3)c3c(-c4ccc5nc(C)oc5c4)c[nH]c3n2)c(OC)c1 | 3.35
Nc1ccn(C2OC(CO)C(O)C2(F)F)c(=O)n1 (configuration not stated) + CNC(=O)c1ccc(Nc2nc(OC3CCCC3)c3c(-c4ccc5nc(C)oc5c4)c[nH]c3n2)c(OC)c1 | 4.87
O=C(c1cc(Cc2n[nH]c(=O)c3ccccc23)ccc1F)N1CCN(C(=O)C2CC2)CC1 + CNC(=O)c1ccc(Nc2nc(OC3CCCC3)c3c(-c4ccc5nc(C)oc5c4)c[nH]c3n2)c(OC)c1 | 31.5
O=c1[nH]cc(F)c(=O)[nH]1 + CNC(=O)c1ccc(Nc2nc(OC3CCCC3)c3c(-c4ccc5nc(C)oc5c4)c[nH]c3n2)c(OC)c1 | 23.1

Same assay, conditions: second compound 0.316 µM; first compound 3.16 µM; hits give low values

Compound | viability, T/C [%]
Nc1ccn(C2OC(CO)C(O)C2(F)F)c(=O)n1 (configuration not stated) + CNC(=O)c1ccc(Nc2nc(OC3CCCC3)c3c(-c4ccc5nc(C)oc5c4)c[nH]c3n2)c(OC)c1 | 4.82
O=C(c1cc(Cc2n[nH]c(=O)c3ccccc23)ccc1F)N1CCN(C(=O)C2CC2)CC1 + CNC(=O)c1ccc(Nc2nc(OC3CCCC3)c3c(-c4ccc5nc(C)oc5c4)c[nH]c3n2)c(OC)c1 | 25
O=c1[nH]cc(F)c(=O)[nH]1 + CNC(=O)c1ccc(Nc2nc(OC3CCCC3)c3c(-c4ccc5nc(C)oc5c4)c[nH]c3n2)c(OC)c1 | 15

Same assay, conditions: second compound 0.316 µM; first compound 10 µM; hits give low values

Compound | viability, T/C [%]
Nc1ccn(C2OC(CO)C(O)C2(F)F)c(=O)n1 (configuration not stated) + CNC(=O)c1ccc(Nc2nc(OC3CCCC3)c3c(-c4ccc5nc(C)oc5c4)c[nH]c3n2)c(OC)c1 | 2.7
O=C(c1cc(Cc2n[nH]c(=O)c3ccccc23)ccc1F)N1CCN(C(=O)C2CC2)CC1 + CNC(=O)c1ccc(Nc2nc(OC3CCCC3)c3c(-c4ccc5nc(C)oc5c4)c[nH]c3n2)c(OC)c1 | 17.2
O=c1[nH]cc(F)c(=O)[nH]1 + CNC(=O)c1ccc(Nc2nc(OC3CCCC3)c3c(-c4ccc5nc(C)oc5c4)c[nH]c3n2)c(OC)c1 | 12.6

Same assay, conditions: second compound 1 µM; first compound 0.000316 µM; hits give low values

Compound | viability, T/C [%]
Cn1ncnc1[C@H]1c2n[nH]c(=O)c3cc(F)cc(c23)N[C@@H]1c1ccc(F)cc1 + CNC(=O)c1ccc(Nc2nc(OC3CCCC3)c3c(-c4ccc5nc(C)oc5c4)c[nH]c3n2)c(OC)c1 | 18.1

Same assay, conditions: second compound 1 µM; first compound 0.001 µM; hits give low values

Compound | viability, T/C [%]
Cn1ncnc1[C@H]1c2n[nH]c(=O)c3cc(F)cc(c23)N[C@@H]1c1ccc(F)cc1 + CNC(=O)c1ccc(Nc2nc(OC3CCCC3)c3c(-c4ccc5nc(C)oc5c4)c[nH]c3n2)c(OC)c1 | 20.1

Same assay, conditions: second compound 1 µM; first compound 0.00316 µM; hits give low values

Compound | viability, T/C [%]
CCc1c2c(nc3ccc(O)cc13)-c1cc3c(c(=O)n1C2)COC(=O)[C@]3(O)CC + CNC(=O)c1ccc(Nc2nc(OC3CCCC3)c3c(-c4ccc5nc(C)oc5c4)c[nH]c3n2)c(OC)c1 | 15.2
Cn1ncnc1[C@H]1c2n[nH]c(=O)c3cc(F)cc(c23)N[C@@H]1c1ccc(F)cc1 + CNC(=O)c1ccc(Nc2nc(OC3CCCC3)c3c(-c4ccc5nc(C)oc5c4)c[nH]c3n2)c(OC)c1 | 14.9

Same assay, conditions: second compound 1 µM; first compound 0.01 µM; hits give low values

Compound | viability, T/C [%]
CCc1c2c(nc3ccc(O)cc13)-c1cc3c(c(=O)n1C2)COC(=O)[C@]3(O)CC + CNC(=O)c1ccc(Nc2nc(OC3CCCC3)c3c(-c4ccc5nc(C)oc5c4)c[nH]c3n2)c(OC)c1 | 12.4
Cn1ncnc1[C@H]1c2n[nH]c(=O)c3cc(F)cc(c23)N[C@@H]1c1ccc(F)cc1 + CNC(=O)c1ccc(Nc2nc(OC3CCCC3)c3c(-c4ccc5nc(C)oc5c4)c[nH]c3n2)c(OC)c1 | 17.3

Same assay, conditions: second compound 1 µM; first compound 0.0316 µM; hits give low values

Compound | viability, T/C [%]
CCc1c2c(nc3ccc(O)cc13)-c1cc3c(c(=O)n1C2)COC(=O)[C@]3(O)CC + CNC(=O)c1ccc(Nc2nc(OC3CCCC3)c3c(-c4ccc5nc(C)oc5c4)c[nH]c3n2)c(OC)c1 | 7.9
Cn1ncnc1[C@H]1c2n[nH]c(=O)c3cc(F)cc(c23)N[C@@H]1c1ccc(F)cc1 + CNC(=O)c1ccc(Nc2nc(OC3CCCC3)c3c(-c4ccc5nc(C)oc5c4)c[nH]c3n2)c(OC)c1 | 22
Nc1ccn(C2OC(CO)C(O)C2(F)F)c(=O)n1 (configuration not stated) + CNC(=O)c1ccc(Nc2nc(OC3CCCC3)c3c(-c4ccc5nc(C)oc5c4)c[nH]c3n2)c(OC)c1 | 6.66
O=C(c1cc(Cc2n[nH]c(=O)c3ccccc23)ccc1F)N1CCN(C(=O)C2CC2)CC1 + CNC(=O)c1ccc(Nc2nc(OC3CCCC3)c3c(-c4ccc5nc(C)oc5c4)c[nH]c3n2)c(OC)c1 | 22.3
O=c1[nH]cc(F)c(=O)[nH]1 + CNC(=O)c1ccc(Nc2nc(OC3CCCC3)c3c(-c4ccc5nc(C)oc5c4)c[nH]c3n2)c(OC)c1 | 17.2

Same assay, conditions: second compound 1 µM; first compound 0.1 µM; hits give low values

Compound | viability, T/C [%]
CCc1c2c(nc3ccc(O)cc13)-c1cc3c(c(=O)n1C2)COC(=O)[C@]3(O)CC + CNC(=O)c1ccc(Nc2nc(OC3CCCC3)c3c(-c4ccc5nc(C)oc5c4)c[nH]c3n2)c(OC)c1 | 5.92
Cn1ncnc1[C@H]1c2n[nH]c(=O)c3cc(F)cc(c23)N[C@@H]1c1ccc(F)cc1 + CNC(=O)c1ccc(Nc2nc(OC3CCCC3)c3c(-c4ccc5nc(C)oc5c4)c[nH]c3n2)c(OC)c1 | 12.1
Nc1ccn(C2OC(CO)C(O)C2(F)F)c(=O)n1 (configuration not stated) + CNC(=O)c1ccc(Nc2nc(OC3CCCC3)c3c(-c4ccc5nc(C)oc5c4)c[nH]c3n2)c(OC)c1 | 4.92
O=C(c1cc(Cc2n[nH]c(=O)c3ccccc23)ccc1F)N1CCN(C(=O)C2CC2)CC1 + CNC(=O)c1ccc(Nc2nc(OC3CCCC3)c3c(-c4ccc5nc(C)oc5c4)c[nH]c3n2)c(OC)c1 | 20.1
O=c1[nH]cc(F)c(=O)[nH]1 + CNC(=O)c1ccc(Nc2nc(OC3CCCC3)c3c(-c4ccc5nc(C)oc5c4)c[nH]c3n2)c(OC)c1 | 16.8

Same assay, conditions: second compound 1 µM; first compound 0.316 µM; hits give low values

Compound | viability, T/C [%]
CCc1c2c(nc3ccc(O)cc13)-c1cc3c(c(=O)n1C2)COC(=O)[C@]3(O)CC + CNC(=O)c1ccc(Nc2nc(OC3CCCC3)c3c(-c4ccc5nc(C)oc5c4)c[nH]c3n2)c(OC)c1 | 4.02
Nc1ccn(C2OC(CO)C(O)C2(F)F)c(=O)n1 (configuration not stated) + CNC(=O)c1ccc(Nc2nc(OC3CCCC3)c3c(-c4ccc5nc(C)oc5c4)c[nH]c3n2)c(OC)c1 | 5.51
O=C(c1cc(Cc2n[nH]c(=O)c3ccccc23)ccc1F)N1CCN(C(=O)C2CC2)CC1 + CNC(=O)c1ccc(Nc2nc(OC3CCCC3)c3c(-c4ccc5nc(C)oc5c4)c[nH]c3n2)c(OC)c1 | 20
O=c1[nH]cc(F)c(=O)[nH]1 + CNC(=O)c1ccc(Nc2nc(OC3CCCC3)c3c(-c4ccc5nc(C)oc5c4)c[nH]c3n2)c(OC)c1 | 16.9

Same assay, conditions: second compound 1 µM; first compound 1 µM; hits give low values

Compound | viability, T/C [%]
CCc1c2c(nc3ccc(O)cc13)-c1cc3c(c(=O)n1C2)COC(=O)[C@]3(O)CC + CNC(=O)c1ccc(Nc2nc(OC3CCCC3)c3c(-c4ccc5nc(C)oc5c4)c[nH]c3n2)c(OC)c1 | 2.78
Nc1ccn(C2OC(CO)C(O)C2(F)F)c(=O)n1 (configuration not stated) + CNC(=O)c1ccc(Nc2nc(OC3CCCC3)c3c(-c4ccc5nc(C)oc5c4)c[nH]c3n2)c(OC)c1 | 5.11
O=C(c1cc(Cc2n[nH]c(=O)c3ccccc23)ccc1F)N1CCN(C(=O)C2CC2)CC1 + CNC(=O)c1ccc(Nc2nc(OC3CCCC3)c3c(-c4ccc5nc(C)oc5c4)c[nH]c3n2)c(OC)c1 | 17.8
O=c1[nH]cc(F)c(=O)[nH]1 + CNC(=O)c1ccc(Nc2nc(OC3CCCC3)c3c(-c4ccc5nc(C)oc5c4)c[nH]c3n2)c(OC)c1 | 11.3

Same assay, conditions: second compound 1 µM; first compound 3.16 µM; hits give low values

Compound | viability, T/C [%]
Nc1ccn(C2OC(CO)C(O)C2(F)F)c(=O)n1 (configuration not stated) + CNC(=O)c1ccc(Nc2nc(OC3CCCC3)c3c(-c4ccc5nc(C)oc5c4)c[nH]c3n2)c(OC)c1 | 3.64
O=C(c1cc(Cc2n[nH]c(=O)c3ccccc23)ccc1F)N1CCN(C(=O)C2CC2)CC1 + CNC(=O)c1ccc(Nc2nc(OC3CCCC3)c3c(-c4ccc5nc(C)oc5c4)c[nH]c3n2)c(OC)c1 | 16.9
O=c1[nH]cc(F)c(=O)[nH]1 + CNC(=O)c1ccc(Nc2nc(OC3CCCC3)c3c(-c4ccc5nc(C)oc5c4)c[nH]c3n2)c(OC)c1 | 13.3

Same assay, conditions: second compound 1 µM; first compound 10 µM; hits give low values

Compound | viability, T/C [%]
Nc1ccn(C2OC(CO)C(O)C2(F)F)c(=O)n1 (configuration not stated) + CNC(=O)c1ccc(Nc2nc(OC3CCCC3)c3c(-c4ccc5nc(C)oc5c4)c[nH]c3n2)c(OC)c1 | 2.55
O=C(c1cc(Cc2n[nH]c(=O)c3ccccc23)ccc1F)N1CCN(C(=O)C2CC2)CC1 + CNC(=O)c1ccc(Nc2nc(OC3CCCC3)c3c(-c4ccc5nc(C)oc5c4)c[nH]c3n2)c(OC)c1 | 14.7
O=c1[nH]cc(F)c(=O)[nH]1 + CNC(=O)c1ccc(Nc2nc(OC3CCCC3)c3c(-c4ccc5nc(C)oc5c4)c[nH]c3n2)c(OC)c1 | 7

Same assay, conditions: second compound 3.16 µM; first compound 0.000316 µM; hits give low values

Compound | viability, T/C [%]
Cn1ncnc1[C@H]1c2n[nH]c(=O)c3cc(F)cc(c23)N[C@@H]1c1ccc(F)cc1 + CNC(=O)c1ccc(Nc2nc(OC3CCCC3)c3c(-c4ccc5nc(C)oc5c4)c[nH]c3n2)c(OC)c1 | 24.5

Same assay, conditions: second compound 3.16 µM; first compound 0.001 µM; hits give low values

Compound | viability, T/C [%]
Cn1ncnc1[C@H]1c2n[nH]c(=O)c3cc(F)cc(c23)N[C@@H]1c1ccc(F)cc1 + CNC(=O)c1ccc(Nc2nc(OC3CCCC3)c3c(-c4ccc5nc(C)oc5c4)c[nH]c3n2)c(OC)c1 | 19.9

Same assay, conditions: second compound 3.16 µM; first compound 0.00316 µM; hits give low values

Compound | viability, T/C [%]
CCc1c2c(nc3ccc(O)cc13)-c1cc3c(c(=O)n1C2)COC(=O)[C@]3(O)CC + CNC(=O)c1ccc(Nc2nc(OC3CCCC3)c3c(-c4ccc5nc(C)oc5c4)c[nH]c3n2)c(OC)c1 | 13.2
Cn1ncnc1[C@H]1c2n[nH]c(=O)c3cc(F)cc(c23)N[C@@H]1c1ccc(F)cc1 + CNC(=O)c1ccc(Nc2nc(OC3CCCC3)c3c(-c4ccc5nc(C)oc5c4)c[nH]c3n2)c(OC)c1 | 27.6

Same assay, conditions: second compound 3.16 µM; first compound 0.01 µM; hits give low values

Compound | viability, T/C [%]
CCc1c2c(nc3ccc(O)cc13)-c1cc3c(c(=O)n1C2)COC(=O)[C@]3(O)CC + CNC(=O)c1ccc(Nc2nc(OC3CCCC3)c3c(-c4ccc5nc(C)oc5c4)c[nH]c3n2)c(OC)c1 | 9.13
Cn1ncnc1[C@H]1c2n[nH]c(=O)c3cc(F)cc(c23)N[C@@H]1c1ccc(F)cc1 + CNC(=O)c1ccc(Nc2nc(OC3CCCC3)c3c(-c4ccc5nc(C)oc5c4)c[nH]c3n2)c(OC)c1 | 14.3

Same assay, conditions: second compound 3.16 µM; first compound 0.0316 µM; hits give low values

Compound | viability, T/C [%]
CCc1c2c(nc3ccc(O)cc13)-c1cc3c(c(=O)n1C2)COC(=O)[C@]3(O)CC + CNC(=O)c1ccc(Nc2nc(OC3CCCC3)c3c(-c4ccc5nc(C)oc5c4)c[nH]c3n2)c(OC)c1 | 6.71

— PubChem BioAssay AID2060599 (Molecular Pharmacology Branch, DTP, NCI, 2025)
